Data reported in article PMC9071858, “Comparative Pharmacokinetics of Seven Major Compounds in Normal and Atherosclerosis Mice after Oral Administration of Simiao Yong'an Decoction” (Evidence-based Complementary and Alternative Medicine : eCAM, 2022).

Key:
[1] = Pharmacokinetic study in normal control (NC) mice after oral administration of SMYAD; assay type: in vivo, mouse; conditions: for AUC(0-t) / AUC(0-inf) / Cmax / half-life / Tmax: male, C57BL/6J
Method: (§1) Male C57BL/6J mice and ApoE^−/− mice on a C57BL/6 background (7 weeks old, 18–22 g) were purchased from Beijing Vital River Laboratory Animal Technology Co., Ltd. (Beijing, China, Certificate No.: SCXK (Jing) 2016-0006). All the mice were kept in an SPF animal house (Dongzhimen Hospital Affiliated to Beijing University of Chinese Medicine, Certificate No.: SYXK (Jing) 2015-0001) with food and water freely available, 12 h light/dark, and environmental conditions of 22°C–24°C, 50% relative humidity. All protocols of animal experiments were performed in accordance with the National Guidelines for Laboratory Animal Welfare and were approved by the Animal Ethics Committee of Beijing University of Chinese Medicine (NO. BUCM-4-2015071701-3001). High-fat feeding (containing 15% fat and 0.25% cholesterol) was provided by Beijing HFK bioscience CO., LTD. (Beijing, China, Certificate No.: SCXK (Jing) 2014-0018).
(§2) After successful induction of AS model, SMYAD was administered to NC and AS mice by intragastric gavage at the crude drug dose of 35 g/kg/d for seven days. Blood samples were collected from each mouse in heparinized tubes via the postorbital venous plexus veins at 0, 0.25, 0.5, 1, 2, 4, 6, 8, 10, 12, 18, and 24 h after seven days of drug administration. Then blood samples were immediately centrifuged at 3500 rpm at 4°C for 10 min and the plasma was stored at −80°C until use.
(§3) Each plasma sample (100 μL) was mixed with a threefold volume of methanol and 25 μL IS in a 1.5 mL EP tube. Then the mixture was vortexed for 100 seconds and centrifuged at 12,000 rpm for 10 min at 4°C. The supernatant was transferred to another EP tube and evaporated to dryness under a nitrogen vacuum. The residue was reconstituted with 100 μL of 50% methanol and centrifuged at 15,000 rpm for 15 min. Then the supernatant was transferred to sample vials for the LC-MS analysis.
(§4) A Vanquish UHPLC™ system (Thermo Fisher Scientific Inc., USA) was used for the analysis. Samples were separated on an Atlantis T3 column (4.6 mm × 150 mm, 3 μm; Waters, USA). The column temperature was 40°C. The mobile phase, at 0.4 mL/min, consisted of water containing 0.1% formic acid (v/v, A) and methanol (B). The quantitative analysis gradient program was as follows: 0-1 min, 0 B; 1–6 min, 0–100% B; 6–12 min, 100% B; 12–12.1 min, 100%-0 B; 12.1–15 min, 0 B. The injection volume was 5 μL.
(§5) The mass spectrometer Q Exactive HF-X (Thermo Fisher Scientific Inc., USA) system was connected to the UHPLC system via heated electrospray ionization (HESI) and controlled by Xcalibur 4.2 software (Thermo Fisher) that was used for data collection and analysis. The mass spectrometer was operated in a negative ionization mode. The MS parameters were set as follows: probe heater temperature, 350°C; capillary temperature: 320°C; sheath gas (N2) flow rate: 30 arbs; auxiliary gas (N2) flow rate: 10 arbs; spray voltage: 3.2 kV (negative); S-Lens RF level: 55 V; scan mode: full MS (resolution 12000); scan range: m/z 150–1500. The most abundant ions in the spectra were selected for sensitive quantitation ([M-H]^−of chlorogenic acid, angoroside C, liquiritin, isoliquiritigenin, and IS, [M + COOH]^− of harpagide, swertiamarin, and sweroside).
The pharmacokinetic parameters, including maximum plasma concentration (Cmax), time corresponding to Cmax (Tmax), terminal elimination half-life (T1/2), area under plasma concentration-time curve (AUC0–t) and area under the plasma concentration-time curve from 0 to infinity time (AUC0–∞), apparent volume of distribution (Vz/F) and clearance (CLz/F), were calculated using the noncompartment model in DAS 2.0 software package (Shanghai, China). GraphPad prism 6.02 (GraphPad Software, USA) was used in the statistical analysis. All values are expressed as mean ± standard error. For the pharmacokinetic parameter values of the NC and AS groups, Student's t-test was employed for data comparisons. P values <0.05 were considered statistically significant.

[2] = Pharmacokinetic study in atherosclerosis (AS) model ApoE−/− mice after oral administration of SMYAD; assay type: in vivo, mouse
Method: as §1
The AS model was established by a high-fat diet and perivascular carotid collar placement (PCCP) surgery in the ApoE^−/− mice. After a 7-day adaptive feeding, the mice were given a high-fat diet for 2 weeks; before anesthesia, all ApoE^−/− mice were fasted for 12 hours. During the surgery, the right common carotid artery was exposed, and a silicone cannula (length: 2.5 mm, inner diameter: 0.3 mm) was fixed around the carotid artery (external diameter: about 0.5 mm). Penicillin was injected intraperitoneally for 3 days after surgery to prevent infection. High-fat diet continued for 8 weeks after surgery to establish AS model. Biochemical assays and hematoxylin and eosin (HE) staining were used to evaluate whether AS model was successfully established.
as §2, §3, §4
as §5, with “sweroside). […]” for “sweroside).”

[3] = NC mice, plasma, SMYAD intragastric 35 g/kg/d for seven days, mean ± SD, n = 5
[4] = mouse, po, 35 g/kg/day, NC mice, plasma, SMYAD intragastric 35 g/kg/d for seven days, mean ± SD, n = 5, read-out: AUC0–t
[5] = mouse, po, 35 g/kg/day, NC mice, plasma, SMYAD intragastric 35 g/kg/d for seven days, mean ± SD, n = 5, read-out: AUC0–∞
[6] = mouse, po, 35 g/kg/day, NC mice, plasma, SMYAD intragastric 35 g/kg/d for seven days, mean ± SD, n = 5, read-out: C max
[7] = mouse, po, 35 g/kg/day, NC mice, plasma, SMYAD intragastric 35 g/kg/d for seven days, mean ± SD, n = 5, read-out: t 1/2 (converted)
[8] = mouse, po, 35 g/kg/day, NC mice, plasma, SMYAD intragastric 35 g/kg/d for seven days, mean ± SD, n = 5, read-out: t max
[9] = AS mice, plasma, SMYAD intragastric 35 g/kg/d for seven days, mean ± SD, n = 5
[10] = male, ApoE−/− on a C57BL/6 background, mouse, po, 35 g/kg/day, AS mice, plasma, SMYAD intragastric 35 g/kg/d for seven days, mean ± SD, n = 5, read-out: AUC0–t
[11] = male, ApoE−/− on a C57BL/6 background, mouse, po, 35 g/kg/day, AS mice, plasma, SMYAD intragastric 35 g/kg/d for seven days, mean ± SD, n = 5, read-out: AUC0–∞
[12] = male, ApoE−/− on a C57BL/6 background, mouse, po, 35 g/kg/day, AS mice, plasma, SMYAD intragastric 35 g/kg/d for seven days, mean ± SD, n = 5, read-out: C max
[13] = male, ApoE−/− on a C57BL/6 background, mouse, po, 35 g/kg/day, AS mice, plasma, SMYAD intragastric 35 g/kg/d for seven days, mean ± SD, n = 5, read-out: t 1/2 (converted)
[14] = male, ApoE−/− on a C57BL/6 background, mouse, po, 35 g/kg/day, AS mice, plasma, SMYAD intragastric 35 g/kg/d for seven days, mean ± SD, n = 5, read-out: t max
[15] = mouse, in vivo, po, 35 g/kg/day
[16] = male, ApoE−/− on a C57BL/6 background, mouse, in vivo, po, 35 g/kg/day

CLz/F [1, 3]	Vz/F [1, 3]	AUC(0-t) [1, 4]	AUC(0-inf) [1, 5]	Cmax [1, 6]	half-life [1, 7]	Tmax [1, 8]	CLz/F [2, 9]	Vz/F [2, 9]	AUC(0-t) [2, 10]	AUC(0-inf) [2, 11]	Cmax [2, 12]	half-life [2, 13]	Tmax [2, 14]	SMILES	AUC(0-inf) [1, 15]	AUC(0-t) [1, 15]	Cmax [1, 15]	Tmax [1, 15]	half-life [1, 15]	CLz/F [1, 15]	further results
506200 ± 126000 µL/min/mg	247.01 ± 150.71 L/mg	1110 ± 419 ng·h/mL	1260 ± 425 ng·h/mL	267 ± 72.4 ng/mL	4.51 ± 1.1 h	1.13 ± 0.88 h	13.49 ± 1.81^∗∗ L/h/mg	302.49 ± 211.89 L/mg	1560 ± 476 ng·h/mL	2640 ± 323 ng·h/mL	1130 ± 970 ng/mL	21.6 ± 9.16 h	0.25 h	O=C(/C=C/c1ccc(O)c(O)c1)O[C@@H]1C[C@](O)(C(=O)O)C[C@@H](O)[C@H]1O [Chlorogenic acid, chlorogenic acid]	–	–	–	–	–	–	CLz/F ([2]; AS mice, plasma, SMYAD intragastric 35 g/kg/d for seven days, mean ± SD, n = 5, listed as chlorogenic acid): 13.49 ± 1.81 L/h/mg
558500 ± 73500 µL/min/mg	198.37 ± 58.53 L/mg	1040 ± 144 ng·h/mL	1060 ± 144 ng·h/mL	175 ± 49 ng/mL	6.65 ± 1.31 h	1.9 ± 2.13 h	62.16 ± 23.35^∗ L/h/mg	658.87 ± 555.51 L/mg	502 ± 166 ng·h/mL	654 ± 251 ng·h/mL	135 ± 102 ng/mL	6.01 ± 2.32 h	0.95 ± 0.6 h	O=C(/C=C/c1ccc(O)cc1)c1ccc(O)cc1O [Isoliquiritigenin, isoliquiritigenin]	–	–	–	–	–	–	CLz/F ([2]; AS mice, plasma, SMYAD intragastric 35 g/kg/d for seven days, mean ± SD, n = 5, listed as isoliquiritigenin): 62.16 ± 23.35 L/h/mg
–	–	–	–	–	–	–	–	–	–	–	–	–	–	O=C1C[C@@H](c2ccc(O[C@@H]3O[C@H](CO)[C@@H](O)[C@H](O)[C@H]3O)cc2)Oc2cc(O)ccc21 [Liquiritin, liquiritin]	760 ± 334 ng·h/mL	607 ± 229 ng·h/mL	132 ± 57.1 ng/mL	0.75 ± 0.63 h	17 ± 3.43 h	979000 ± 515700 µL/min/mg	Vz/F [1, 15]: 565.81 ± 116.60 L/mg; CLz/F ([2]; male, ApoE−/− on a C57BL/6 background, mouse, in vivo): 67.62 ± 33.62 L/h/mg; AUC(0-inf) [2, 16]: 482 ± 137 ng·h/mL; AUC(0-t) [2, 16]: 408 ± 115 ng·h/mL; Cmax [2, 16]: 67.6 ± 33.6 ng/mL; Tmax [2, 16]: 0.75 ± 0.69 h; half-life [2, 16]: 13.5 ± 3.57 h; Vz/F [2, 15]: 887.57 ± 397.82 L/mg
–	–	–	–	–	–	–	–	–	–	–	–	–	–	C=C[C@H]1[C@H](O[C@@H]2O[C@H](CO)[C@@H](O)[C@H](O)[C@H]2O)OC=C2C(=O)OCC[C@H]21 [Sweroside, sweroside]	7080 ± 390 ng·h/mL	6980 ± 382 ng·h/mL	1790 ± 369 ng/mL	0.4 ± 0.3 h	3.81 ± 0.56 h	82700 ± 4670 µL/min/mg	Vz/F [1, 15]: 16.99 ± 3.78 L/mg; AUC(0-inf) [2, 16]: 8930 ± 2120 ng·h/mL; AUC(0-t) [2, 16]: 7500 ± 1800 ng·h/mL; Cmax [2, 16]: 1590 ± 497 ng/mL; Tmax [2, 16]: 0.9 ± 0.64 h; half-life [2, 16]: 6.56 ± 2.75 h; CLz/F [2, 15]: 4.29 ± 1.55 L/h/mg; Vz/F [2, 15]: 29.99 ± 14.26 L/mg
